{"source": "patent US8911771B2", "about": "“Fluid application device and method” (Otsuka America Pharmaceutical, Inc., priority 2004, dated 2014)", "tested_on": "wide range of bacteria (1050 organisms; clinical isolates from a number of bacterial and fungal species)", "assay": "in vitro minimum inhibitory concentration (MIC) testing", "format": "cell-based", "conditions": "concentration of olanexidine solution inhibiting >95% of 1050 organisms", "description": "The bacteria included in the MIC testing study included clinical isolates from a number of bacterial and fungal species. The MIC method is a widely accepted methodology that is useful for determining and comparing in vitro antimicrobial activity, while the Pig Skin Model is useful for determining activity under simulated conditions of use. The following chart summarizes the results obtained with the Pig Skin Model: […]"}
{"molecule": "CCCCCCCCNC(=N)NC(=N)NCc1ccc(Cl)c(Cl)c1", "note": "[olanexidine, 1-(3,4-dichlorobenzyl)-5-octylbiguanide]", "values": [{"measurement": "MIC", "result": "≤ 32", "unit": "µg/mL"}]}
